Structures are written as SMILES.

The nature of this data set: gradient 5% acetonitrile 3 min, to 50% in 2 min, to 85% in 15 min, held 3 min, 100 µL/min. The settings on record: column: Zorbax Extend-C18 2.1 x 50 mm; eluents: water / acetonitrile, 0.1% formic acid. A digest of the protocol:
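A Zorbax Extend-C18 column (2.1 × 50 mm, 1.8 μm) run at 100 μL/min with water and acetonitrile, both containing 0.1% formic acid, separated mixtures of ~100 pure standards. The HPLC was coupled to a quadrupole time-of-flight mass spectrometer operated in positive and negative ionization mode, with dead and dwell volumes of 40 μL and 900 μL. Each retention time was taken from a computationally picked adduct peak that was then manually inspected.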
Molecule `c1ccc(-n2nnc(-c3noc(-c4ccco4)n3)c2-c2ccncc2)cc1` showed an RP-LC retention time of 787 s.

On to `O=c1n(Cc2ccc(F)cc2)nc2c(-c3nc(-c4cccc(F)c4)no3)cccn12`, for which the RP-LC retention time came out at 971 s. Regarding `O=C(CN1CCN(c2ccc(F)c(F)c2)C1=O)NC1CCS(=O)(=O)C1` (stereo not drawn), the RP-LC retention time was 636 s. Under `CCc1nn2c(=O)cc(CSc3nnc(-c4ccc5c(c4)OCO5)o3)nc2s1` stands 743 s; under `Cc1noc(C)c1CN1CCN(C(=O)CSc2ccc(F)cc2)CC1`, 570 s; under `CC(C)NC(=O)CCC(=O)N1CCCn2nc(-c3cn(C)c4ccccc34)cc21`, 718 s.

`Cc1nc(C(=O)NCc2ccc(F)cc2Cl)c(C)o1` showed an RP-LC retention time of 874 s.

For `CCN1C(=O)c2cccnc2Sc2cc(NC(=O)c3ccc(OC)nc3)ccc21`, the RP-LC retention time amounted to 756 s. For `COC(=O)c1ccccc1NC(=O)CC1CCCCN1S(=O)(=O)c1ccccc1` (stereo not drawn) the value was 968 s.

`CCN(CC)CCNC(=O)c1cc2n(n1)CCCN(Cc1cccc(C)c1)C2=O`: the RP-LC retention time was 630 s. Under `Cc1ccc(NS(=O)(=O)c2cc3c(s2)CCN(C(=O)C2CC2)C3)cc1F` stands 880 s. Molecule `O=C(NCC#CCN1CCc2ccccc2C1)c1c(F)cccc1Cl` registered an RP-LC retention time of 565 s. Under `COc1ccc(CNC(=O)CSc2cc(N3CCN(c4ccccc4OC)CC3)ncn2)cc1` stands 1090 s.

`O=C(NCC1CCCO1)c1nc(-c2ccnc(N3CCCCCC3)c2)no1` (stereo not drawn) yielded an RP-LC retention time of 641 s. `CCOc1ccc(-c2nnc(SCC(=O)N3c4ccccc4CC3C)o2)cc1` (stereo not drawn) registered an RP-LC retention time of 1110 s. Under `CS(=O)(=O)N1C[C@H]2CCN(Cc3c(F)cccc3Cl)C[C@H]21` stands 571 s. Under `O=C(Cn1cnc2ccccc21)OCc1cc(-c2ccc3c(c2)OCO3)on1` stands 639 s; under `Cc1nn(-c2ccc(-c3ccccc3)nn2)c(C)c1S(=O)(=O)N1CCN(C)CC1`, 644 s. For `O=C(NCCc1csc(-c2ccccc2)n1)C1CCN(S(=O)(=O)c2ccc(Cl)s2)CC1` the value was 1010 s; for `CC(C)(C)c1ccc(C(=O)N(Cc2ccc(Br)o2)C2CCS(=O)(=O)C2)cc1` (stereo not drawn), 1110 s; for `Cc1ccc(NC(=O)N2CCC(c3nc(C(=O)N4CCCC4)c(C)o3)CC2)cc1C`, 829 s.

For `O=c1ccn(-c2cccc(F)c2)nc1-c1nc(-c2ccc(Br)cc2)no1`, the RP-LC retention time is 1000 s.

For the molecule `Cn1nccc1-c1cccc(-c2noc(-c3cccc(C#N)c3)n2)c1`, the RP-LC retention time came to 1030 s.

Consider `Cc1cc(C)n2c(Nc3c(C)cccc3C)c(-c3ccccc3)nc2n1`, for which the RP-LC retention time was determined as 743 s. As for `Cc1ccccc1CNC(=O)C1CCN(S(C)(=O)=O)c2ccccc2O1` (stereo not drawn), the RP-LC retention time worked out at 841 s. For `CCCc1ccc(S(=O)(=O)N2CCC3(CC2)NCCN=C3NCc2ccccc2OC)cc1` the value was 836 s. Molecule `Cn1c(=O)n(CCCC#N)c2cncnc21` showed an RP-LC retention time of 550 s. Under `CNc1nccc(N2CCC(CC(=O)NCCCN3CCCC3=O)CC2)n1` stands 490 s. Under `COc1ccc(-c2nnc(-c3ccc(C)c(S(=O)(=O)N4CCOCC4)c3)o2)cc1OC` stands 844 s; under `CCn1cc(S(=O)(=O)N2CC(c3nc(CCOCc4ccccc4)no3)C2)cn1`, 856 s; under `Cc1cccc(-c2nnc(-c3cc(S(=O)(=O)N4CCOCC4)ccc3F)o2)c1`, 961 s. In turn, `CC1CCC(NC(=O)CN2C(=O)C(C(=O)N3CCCCC3)Sc3ccccc32)CC1` (stereo not drawn) yielded an RP-LC retention time of 1090 s. Under `CCOc1cc(=O)c(C(=O)N2CCC(C(N)=O)CC2)nn1-c1ccc(F)c(F)c1` stands 625 s. The molecule `Cc1csc(-c2ccc(N3CCN(C(=O)c4ccc(F)cc4)CC3)nc2)n1` showed an RP-LC retention time of 820 s. For `O=C(c1cn(-c2cc(N3CCOCC3)ncn2)cn1)N1CCSCC1` the value was 685 s; for `O=S(=O)(CCCOc1ccc(F)cc1)NCc1ccccn1`, 645 s; for `CCc1ccc(Oc2nccnc2N2CCC(C(=O)N3CCN(c4ccccn4)CC3)CC2)cc1`, 734 s.

`CCc1cc(=O)n(CC(=O)Nc2ccc(C)cc2)c(N)n1` had an RP-LC retention time of 617 s. Take `COc1ccc(Cl)cc1NC(=O)NCc1ccnc(N2CCSCC2)c1`: the RP-LC retention time was 667 s. Regarding `O=C(Cc1csc2nc(-c3ccccc3)cn12)NCc1ccco1`, the RP-LC retention time is 696 s.

`Cc1ccccc1NC(=O)N(C)CCc1noc(COc2ccccc2F)n1`: the RP-LC retention time worked out at 926 s. The molecule `Cc1oc2ccn(Cc3ccccc3F)c(=O)c2c1C(=O)NC(C)c1ccccc1` (stereo not drawn) had an RP-LC retention time of 1150 s. For `COc1cccc(-n2ccc(=O)c(-c3nc(-c4ccccc4F)no3)n2)c1` the value was 869 s; for `COC(=O)c1c(C)c(C(=O)C(C)N(C(=O)c2ccc(Cl)cc2)C2CC2)c(C)n1C` (stereo not drawn), 1030 s.

`C=CCNC(=O)c1cnn(-c2ccc(-c3nc(C)no3)cn2)c1C` yielded an RP-LC retention time of 750 s.

Turning to `Cc1ccc(NC(=O)CN2C(=O)CCc3cc(S(=O)(=O)N4CCCCC4C)ccc32)c(C)c1` (stereo not drawn), the RP-LC retention time came out at 945 s. Under `CC(C)(O)CC(=O)NCCn1ccc2ncnc(Nc3ccc(Oc4cccc(C(F)(F)F)c4)c(Cl)c3)c21` stands 802 s. Under `CCc1nnc([C@@H]2CC(F)(F)CN2C(=O)c2nccn2C)o1` stands 631 s.

As to `Cc1ccc2c(C(=O)NCc3cc(F)cc(F)c3)cc(NC(=O)C(C)C)cc2n1`, the RP-LC retention time is 666 s. `CCCOC(=O)c1[nH]c2c(c1C)C(=O)CC(c1cc(OC)c(OC)c(OC)c1)C2` (stereo not drawn) gave an RP-LC retention time of 610 s. For `COc1ccccc1-c1nc(-c2ccc3c(c2)nnn3CCN(C)C)no1` the value was 644 s.

`CC(=O)N1CCc2cc(-c3ccc(C(=O)N4CCN(c5ccccn5)CC4)cc3)ccc21` had an RP-LC retention time of 611 s.

Molecule `CCOc1ccccc1NC(=O)CSc1ncnc2c1nnn2-c1ccc(OC)cc1` registered an RP-LC retention time of 1030 s.

Regarding `Cc1cc(NC(=O)C2CCCN(c3ccc(=O)n(-c4cccc(F)c4)n3)C2)ccc1Br` (stereo not drawn), the RP-LC retention time was 1050 s. For `Cc1ccc(-n2c(-c3ccc(Cl)cc3)cn3c4c(=O)n(C)c(=O)n(C)c4nc23)cc1N` the value was 870 s; for `CCOC(=O)Cc1csc(NC(=O)C2CC(=O)N(c3n[nH]c4cccc(F)c34)C2)n1` (stereo not drawn), 699 s; for `COc1cccc(CN2CCC3(CC2)NCCc2c3[nH]c3ccccc23)c1`, 583 s.

As for `CCn1cnc2ccc(-c3noc(-c4ccccc4)n3)cc21`, the RP-LC retention time was 758 s. Under `CCC(C)NC(=O)CCn1c(=O)c2ccccc2n2c(=O)n(Cc3ccc(F)cc3)nc12` (stereo not drawn) stands 890 s. For `CCOc1ccc(CNC(=O)C2CCN(c3cnc4nccnc4c3)CC2)cc1` the value was 698 s. For `Cc1cc(C(=O)NC2CCc3nnc(C4CC4)n3CC2)c(C)n1Cc1ccco1` (stereo not drawn), the RP-LC retention time was found to be 660 s. `O=C(N/N=C/c1coc2ccccc2c1=O)c1cccnc1`: the RP-LC retention time turned out to be 663 s. For `O=C(c1ccc2c(c1)nnn2Cc1ccccc1)N1CCN(c2ncccn2)CC1` the value was 766 s. Consider `CCc1ccc(NS(=O)(=O)c2cc(-c3[nH]ncc3C(=O)N3CCCC3)oc2C)cc1`, for which the RP-LC retention time was determined as 758 s. Under `COc1ccc(Nc2c(C(=O)N3CCCC3)cnc3nc(C)ccc23)c(OC)c1` stands 600 s. Under `Cc1ccc(-c2nnc(-c3ccccc3)o2)cc1S(=O)(=O)N1CCC(C)CC1` stands 1210 s; under `CCc1ccc(-c2nc(-c3ccc4oc(C)nc4c3)no2)cc1`, 1280 s. In turn, `COc1ccc2c(c1)c(N1CCCC1=O)c(C(=O)NCCCN1CC(C)CC(C)C1)n2C` (stereo not drawn) displayed an RP-LC retention time of 647 s.

As for `CCOc1ccc(S(=O)(=O)N2CCC(C(=O)N3CCc4ccccc4C3)CC2)cc1`, the RP-LC retention time was determined as 985 s. Under `CC(=O)c1ccc(NC(=O)COc2cc(C)nc(N3CCCCCC3)n2)cc1` stands 642 s; under `CCOc1ccc(NC(=O)Cn2nc3cc(C)nc(N4CCCC4)n3c2=O)cc1`, 765 s.

Turning to `CC(C)c1ccc(OCC(=O)Nc2nc(-c3ccccc3)cs2)cc1`, the RP-LC retention time stood at 1240 s. In turn, `CCc1cccc2[nH]c3cc([N+](=O)[O-])ccc3c12` displayed an RP-LC retention time of 1180 s. Consider `CC1(C)CCC[C@@](C)([C@H]2CC[C@]3(C)[C@@H]2[C@H](O)C[C@@H]2[C@@]4(C)CC[C@H](O)C(C)(C)[C@@H]4[C@@H](O)C[C@]23C)O1`, for which the RP-LC retention time was found to be 1150 s. For `C(=C/c1nc2ccccc2o1)/c1ccc2c(c1)OCO2` the value was 1010 s. For `CC(C)N1CCN(S(=O)(=O)c2ccc(-c3nnc(C4CCC4)o3)o2)CC1` the value was 637 s; for `CCOC(=O)C1C(=O)C=C(c2cccs2)CC1c1ccc(F)cc1` (stereo not drawn), 1110 s; for `O=C(CN1CCc2ccccc2C1C(=O)N1CCCCC1)NCc1cccc(Cl)c1` (stereo not drawn), 913 s.

The record behind these values is the METLIN SMRT retention time set (Domingo-Almenara et al. 2019).
